Target: T1, Kv2.1 (Rattus norvegicus, UniProt P15387)
T1 construct: gene Kcnb1
T1 sequence (P15387 1-857): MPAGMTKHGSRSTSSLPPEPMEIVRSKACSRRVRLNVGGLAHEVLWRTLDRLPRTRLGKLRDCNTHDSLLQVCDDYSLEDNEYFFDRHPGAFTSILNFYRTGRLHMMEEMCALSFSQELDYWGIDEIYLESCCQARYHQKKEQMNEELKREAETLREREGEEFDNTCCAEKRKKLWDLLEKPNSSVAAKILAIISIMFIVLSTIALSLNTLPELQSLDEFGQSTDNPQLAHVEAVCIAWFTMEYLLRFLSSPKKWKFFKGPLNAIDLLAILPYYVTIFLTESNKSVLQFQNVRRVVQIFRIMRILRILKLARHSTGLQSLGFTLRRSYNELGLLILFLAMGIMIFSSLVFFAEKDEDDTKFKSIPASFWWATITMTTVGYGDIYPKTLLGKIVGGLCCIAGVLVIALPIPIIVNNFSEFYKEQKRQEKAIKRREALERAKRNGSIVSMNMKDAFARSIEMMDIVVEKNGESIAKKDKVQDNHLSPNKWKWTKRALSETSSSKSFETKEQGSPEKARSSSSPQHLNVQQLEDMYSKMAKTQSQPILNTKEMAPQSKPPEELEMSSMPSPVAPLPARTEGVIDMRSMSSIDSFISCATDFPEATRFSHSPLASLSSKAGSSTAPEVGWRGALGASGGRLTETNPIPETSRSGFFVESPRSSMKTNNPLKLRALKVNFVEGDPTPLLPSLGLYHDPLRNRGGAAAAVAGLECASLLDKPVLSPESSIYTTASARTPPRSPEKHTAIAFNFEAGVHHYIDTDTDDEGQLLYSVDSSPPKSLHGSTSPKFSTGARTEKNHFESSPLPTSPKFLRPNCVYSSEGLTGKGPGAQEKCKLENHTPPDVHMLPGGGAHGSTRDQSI
Test: whole-cell patch clamp, HEK293 stably expressing Kv2.[…], sigma-1 receptor knockout; […] inhibition at […]
Assay type: cell-based

COc1cccc2c1CCCC2CCCN1CCN(C2CCCCC2)CC1 (stereo not shown) [PB28]
inhibition at 10 µM: 65%

— article PMC5601737, “Potential independent action of sigma receptor ligands through inhibition of the Kv2.1 channel” (Oncotarget, 2017)
